In general, IC50 refers to the concentration that gives 50% inhibition. Lower therefore signals greater potency.

The source of these data is patent publication US7253318B2, “Benzyloxy derivatives as MAOB inhibitors” (Hoffman-La Roche Inc., priority 2004, dated 2007).

For assay [1], the target named is T1, human MAO-A (Homo sapiens, UniProt P21397).
T1 construct: expressed in transfected cells; host or cells: EBNA cells (transient transfection), membrane preparation
T1 sequence (P21397 1-527): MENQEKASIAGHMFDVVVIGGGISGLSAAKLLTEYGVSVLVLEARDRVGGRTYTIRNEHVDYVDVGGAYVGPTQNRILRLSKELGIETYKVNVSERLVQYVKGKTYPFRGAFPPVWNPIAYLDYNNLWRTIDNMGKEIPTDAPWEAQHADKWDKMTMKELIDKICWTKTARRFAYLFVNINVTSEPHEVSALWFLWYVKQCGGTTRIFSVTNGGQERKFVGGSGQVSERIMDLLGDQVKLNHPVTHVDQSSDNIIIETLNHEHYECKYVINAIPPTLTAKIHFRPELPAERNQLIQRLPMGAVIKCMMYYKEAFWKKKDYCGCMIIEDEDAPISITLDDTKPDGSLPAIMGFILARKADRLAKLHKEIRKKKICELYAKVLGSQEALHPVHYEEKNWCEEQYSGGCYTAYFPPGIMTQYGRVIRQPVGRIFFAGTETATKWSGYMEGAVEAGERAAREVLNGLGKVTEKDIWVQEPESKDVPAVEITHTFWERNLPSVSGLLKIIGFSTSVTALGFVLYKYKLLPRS
The assay is described as follows: MAO-A enzymatic activity, spectrophotometric assay (Amplex Red, tyramine substrate) on membranes of transfected EBNA cells. In kind it is biochemical. The settings on record: membranes of EBNA cells transfected with human MAO-A cDNA, 30 min preincubation at 37° C., pH 7.4. How it is done:
(§1) The cDNA's encoding human MAO-A and MAO-B were transiently transfected into EBNA cells using the procedure described by Schlaeger and Christensen [Cytotechnology 15:1-13 (1998)]. After transfection, cells were homogenised by means of a Polytron homogenizer in 20 mM Tris HCl buffer, pH 8.0, containing 0.5 mM EGTA and 0.5 mM phenylmethanesulfonyl fluoride. Cell membranes were obtained by centrifugation at 45,000×g and, after two rinsing steps with 20 mM Tris HCl buffer, pH 8.0, containing 0.5 mM EGTA, membranes were eventually re-suspended in the above buffer and aliquots stored at −80° C. until use.
(§2) MAO-A and MAO-B enzymatic activity was assayed in 96-well-plates using a spectrophotometric assay adapted from the method described by Zhou and Panchuk-Voloshina [Analytical Biochemistry 253:169-174 (1997)]. Briefly, membrane aliquots were incubated in 0.1 M potassium phosphate buffer, pH 7.4, for 30 min at 37° C. with or without various concentrations of the compounds. After this period, the enzymatic reaction was started by the addition of the MAO substrate tyramine together with 1 U/ml horse-radish peroxidase (Roche Biochemicals) and 80 μM N-acetyl-3,7,-dihydroxyphenoxazine (Amplex Red, Molecular Probes). The samples were further incubated for 30 min at 37° C. in a final volume of 200 μl and absorbance was then determined at a wavelength of 570 nm using a SpectraMax plate reader (Molecular Devices). Background (non-specific) absorbance was determined in the presence of 10 μM clorgyline for MAO-A or 10 μM L-deprenyl for MAO-B.
(§3) IC50 values were determined from inhibition curves obtained using nine inhibitor concentrations in duplicate, by fitting data to a four parameter logistic equation using a computer program.

Assay [2] addresses T2, human MAO-B (Homo sapiens, UniProt P27338).
T2 construct: expressed in transfected cells; host or cells: EBNA cells (transient transfection), membrane preparation
T2 sequence (P27338 1-520): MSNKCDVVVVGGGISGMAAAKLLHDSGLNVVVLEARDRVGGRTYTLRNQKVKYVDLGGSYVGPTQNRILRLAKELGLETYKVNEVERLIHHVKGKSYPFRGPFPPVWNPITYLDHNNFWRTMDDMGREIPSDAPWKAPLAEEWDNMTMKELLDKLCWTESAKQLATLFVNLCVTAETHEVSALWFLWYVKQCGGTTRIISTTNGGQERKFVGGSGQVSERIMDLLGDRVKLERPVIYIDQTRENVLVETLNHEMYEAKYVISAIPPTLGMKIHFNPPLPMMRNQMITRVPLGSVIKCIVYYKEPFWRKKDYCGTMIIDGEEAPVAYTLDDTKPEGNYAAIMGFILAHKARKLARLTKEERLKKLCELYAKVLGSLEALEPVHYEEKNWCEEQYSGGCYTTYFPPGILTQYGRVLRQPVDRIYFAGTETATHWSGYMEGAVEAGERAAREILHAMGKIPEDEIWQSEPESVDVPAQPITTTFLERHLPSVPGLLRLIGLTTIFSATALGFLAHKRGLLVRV
As to the kind of experiment: MAO-B enzymatic activity, spectrophotometric assay (Amplex Red, tyramine substrate) on membranes of transfected EBNA cells. The class given is biochemical. The note with it: membranes of EBNA cells transfected with human MAO-B cDNA, 30 min preincubation at 37° C., pH 7.4. On the procedure:
as §1, §2, §3

With `CNC(=O)C(C)Oc1ccc(OCc2cccc(F)c2)cc1` (racemic) [Example 11, (RS)-2-[4-(3-Fluoro-benzyloxy)-phenoxy]-N-methyl-propionamide], the IC50 in assay [1] is greater than 10 µM; in assay [2], 0.031 µM.
For `CNC(=O)C(C)Oc1ccc(OCc2cccc(Cl)c2)cc1` (racemic) [Example 12, (RS)-2-[4-(3-Chloro-benzyloxy)-phenoxy]-N-methyl-propionamide] the same measures were greater than 10 µM and 0.015 µM.
For `CNC(=O)C(C)Oc1ccc(OCc2ccc(C#N)cc2)cc1` (racemic) [Example 14, (RS)-2-[4-(4-Cyano-benzyloxy)-phenoxy]-N-methyl-propionamide] the same measures were greater than 10 µM and 0.031 µM.
Consider `CCC(Oc1ccc(OCc2cccc(F)c2)cc1)C(=O)NC` (racemic) [Example 17, (RS)-2-[4-(3-Fluoro-benzyloxy)-phenoxy]-N-methyl-butyramide], for which the 50% inhibitory concentration (IC50) was greater than 10 µM in assay [1] and 0.056 µM in assay [2].
`CCC(Oc1ccc(OCc2cccc(Cl)c2)cc1)C(=O)NC` (racemic) [Example 18, (RS)-2-[4-(3-Chloro-benzyloxy)-phenoxy]-N-methyl-butyramide]: the IC50 in assay [1] was greater than 10 µM; in assay [2] it was 0.028 µM.
For `CCC(Oc1ccc(OCc2ccc(C#N)cc2)cc1)C(=O)NC` (racemic) [Example 19, (RS)-2-[4-(4-Cyano-benzyloxy)-phenoxy]-N-methyl-butyramide], the values for the IC50 in assay [1] and in assay [2] were greater than 10 µM and 0.074 µM, respectively.
The corresponding values for `CNC(=O)C(C)Oc1ccc(OCc2cccc(Cl)c2)cc1` (single isomer, unassigned) [Example 13, (S or R)-2-[4-(3-Chloro-benzyloxy)-phenoxy]-N-methyl-propionamide] are greater than 10 µM and 0.009 µM.
For `CNC(=O)COc1ccc(OCc2ccccc2)cc1` [Example 2, 2-(4-Benzyloxy-phenoxy)-N-methyl-acetamide] the same measures were greater than 10 µM and 0.052 µM.
For `CNC(=O)COc1ccc(OCc2ccc(C#N)cc2)cc1` [Example 3, 2-[4-(4-Cyano-benzyloxy)-phenoxy]-N-methyl-acetamide] the same measures were 2.86 µM and 0.028 µM.
As to `CNC(=O)COc1ccc(OCc2ccc(Cl)cc2)cc1` [Example 4, 2-[4-(4-Chloro-benzyloxy)-phenoxy]-N-methyl-acetamide], the figures for the IC50 in assay [1] and in assay [2] were 2.44 µM and 0.012 µM, respectively.
In the case of `CNC(=O)COc1ccc(OCc2ccccc2F)cc1` [Example 5, 2-[4-(2-Fluoro-benzyloxy)-phenoxy]-N-methyl-acetamide], the IC50 in assay [1] is greater than 9 µM; in assay [2], 0.081 µM.
For `CNC(=O)COc1ccc(OCc2cccc(F)c2)cc1` [Example 6, 2-[4-(3-Fluoro-benzyloxy)-phenoxy]-N-methyl-acetamide] the same measures were greater than 10 µM and 0.021 µM.
For `CNC(=O)COc1ccc(OCc2ccc(F)cc2)cc1` [Example 7, 2-[4-(4-Fluoro-benzyloxy)-phenoxy]-N-methyl-acetamide] the same measures were 5.4 µM and 0.009 µM.
For `NC(=O)CCOc1ccc(OCc2cccc(F)c2)cc1` [Example 23, 3-[4-(3-Fluoro-benzyloxy)-phenoxy]-propionamide], the IC50 in assay [1] was greater than 10 µM; in assay [2], 0.044 µM.
Regarding `NC(=O)OCCc1ccc(OCc2cccc(F)c2)cc1` [Example 24, Carbamic acid 2-[4-(3-fluoro-benzyloxy)-phenyl]-ethyl ester], the IC50 in assay [1] was greater than 10 µM; in assay [2] it was 0.068 µM.
The corresponding values for `CNC(=O)OCc1ccc(OCc2cccc(F)c2)cc1` [Example 26, Methyl-carbamic acid 4-(3-fluoro-benzyloxy)-benzyl ester] are greater than 10 µM and 0.089 µM.
The corresponding values for `NC(=O)COCc1ccc(OCc2cccc(F)c2)cc1` [Example 27, 2-[4-(3-Fluoro-benzyloxy)-benzyloxy]-acetamide] are greater than 10 µM and 0.051 µM.
